Literature values as cited in US20080293820A1, “METHODS FOR IMPROVING PHYSICAL FUNCTION IN FIBROMYALGIA” (Cypress Bioscience, Inc., priority 2007, published 2008).

System: patients with FMS
Details: open-label; cited from earlier work

## COc1ccc(C(CN(C)C)C2(O)CCCCC2)cc1 (centres unmarked) [venlafaxine]
  completing patients with a positive response (50% or greater improvement in two different measurements of overall pain): Six of 11
  insomnia requiring adjunctive medical therapy, completing patients: 3 of 11
